From patent US20150344540A1, “NOVEL GLP-1 RECEPTOR AGONISTS WITH CHOLESTEROL EFFLUX ACTIVITY” (NOVO NORDISK A/S, priority 2012, published 2015)
Read-outs that look alike come from different tables or passages of the source. Where a SMILES comes first, the peptide text is derived from it. [ ]: non-standard residue; d: D form. Aib = CC(C)(N)C(=O)O

Experiments:
[1] = tested on: Mouse monocyte/macrophage cell line, RAW 264.7; test: Cholesterol efflux assay (3H-cholesterol, macrophage cell line); format: cell-based; conditions: RAW 264.7, 4 hrs incubation, 0.1% human serum albumin; for EC50: read-out: 4 h Cholesterol Efflux EC50, ABCA1-mediated efflux (CPT-cAMP induced minus non-induced); for 4 h Cholesterol Efflux Emax: ABCA1-mediated efflux
human GLP-1 receptor = human GLP-1 receptor (Homo sapiens, UniProt P43220); test: Functional GLP-1 receptor assay, in vitro potency (CRE luciferase; whole cells); format: cell-based
Chain of human GLP-1 receptor (P43220 24-463): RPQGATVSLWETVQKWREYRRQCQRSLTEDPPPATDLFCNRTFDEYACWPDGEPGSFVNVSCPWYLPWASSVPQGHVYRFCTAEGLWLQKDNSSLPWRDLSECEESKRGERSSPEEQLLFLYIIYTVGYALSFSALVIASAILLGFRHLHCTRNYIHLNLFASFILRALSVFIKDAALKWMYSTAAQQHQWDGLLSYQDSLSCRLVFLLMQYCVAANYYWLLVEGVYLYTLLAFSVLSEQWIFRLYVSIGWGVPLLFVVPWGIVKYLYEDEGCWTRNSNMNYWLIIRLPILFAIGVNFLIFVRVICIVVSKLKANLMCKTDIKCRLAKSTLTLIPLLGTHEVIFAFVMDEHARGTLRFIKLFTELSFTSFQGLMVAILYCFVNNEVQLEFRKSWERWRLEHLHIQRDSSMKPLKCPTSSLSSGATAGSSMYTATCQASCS

[2] = GLP1R CRE luc 1% HSA EC50 Mean Value, BHK cells expressing human GLP-1 receptor, 1% HSA
[3] = BHK cells expressing human GLP-1 receptor, 0% HSA, read-out: GLP1R CRE luc 0% HSA EC50 Mean Value

Row | Compound | EC50 (human GLP-1 receptor; [2]) [nM] | EC50 (human GLP-1 receptor; [3]) [nM] | EC50 [1] [nM] | EC50 (human GLP-1 receptor; GLP1R CRE luc 0% HSA EC50 Mean Value, BHK cells expressing human GLP-1 receptor, 0% HSA) [nM] | 4 h Cholesterol Efflux Emax [1] [%] | EC50 (human GLP-1 receptor; GLP1R CRE luc 1% HSA EC50 Mean Value) [nM]
1 | CC[C@H](C)[C@H](NC(=O)[C@H](Cc1ccccc1)NC(=O)[C@H](CCC(=O)O)NC(=O)[C@H](CCCCN)NC(=O)[C@H](C)NC(=O)[C@H](C)NC(=O)[C@H](CCC(N)=O)NC(=O)[C@H](CCC(=O)O)NC(=O)[C@H](CCC(=O)O)NC(=O)[C@H](CC(C)C)NC(=O)[C@H](Cc1ccc(O)cc1)NC(=O)[C@H](CCCCN)NC(=O)[C@H](CO)NC(=O)[C@H](Cc1ccc(O)cc1)NC(=O)[C@H](CC(=O)O)NC(=O)[C@H](CO)NC(=O)[C@@H](NC(=O)[C@H](Cc1ccccc1)NC(=O)[C@@H](NC(=O)CNC(=O)[C@H](CCC(N)=O)NC(=O)[C@H](CO)NC(=O)[C@@H](N)Cc1c[nH]cn1)[C@@H](C)O)[C@@H](C)O)C(=O)N[C@@H](C)C(=O)N[C@@H](Cc1c[nH]c2ccccc12)C(=O)N[C@@H](CC(C)C)C(=O)N[C@@H](CC(C)C)C(=O)N[C@@H](CCC(=O)O)C(=O)N[C@@H](CCCCN)C(=O)NC(C)(C)C(=O)N[C@@H](CCCCN)C(=O)N[C@@H](CCC(=O)O)C(=O)N[C@@H](Cc1ccccc1)C(=O)N[C@@H](CC(C)C)C(N)=O [Compound 56] (H-HSQGTFTSDYSKYLEEQAAKEFIAWLLEK[Aib]KEFL-NH2; N-terminus assumed) | 0.061 |  | 210 | 0.118 |  | 
2 | CC(C)C[C@H](NC(=O)[C@H](Cc1ccccc1)NC(=O)[C@H](CCC(=O)O)NC(=O)[C@H](CCCCN)NC(=O)C(C)(C)NC(=O)[C@H](CCCCN)NC(=O)[C@H](CCC(=O)O)NC(=O)[C@@H](NC(=O)[C@H](CC(C)C)NC(=O)[C@H](Cc1c[nH]c2ccccc12)NC(=O)[C@H](CCC(N)=O)NC(=O)[C@@H](NC(=O)[C@H](Cc1ccccc1)NC(=O)[C@H](CCC(=O)O)NC(=O)[C@H](CCCCN)NC(=O)[C@@H](NC(=O)[C@H](C)NC(=O)[C@H](CCC(=O)O)NC(=O)CNC(=O)[C@H](CCC(=O)O)NC(=O)[C@H](CC(C)C)NC(=O)[C@H](Cc1ccc(O)cc1)NC(=O)[C@H](CO)NC(=O)[C@H](CO)NC(=O)[C@@H](NC(=O)[C@H](CC(=O)O)NC(=O)[C@H](CO)NC(=O)[C@@H](NC(=O)[C@H](Cc1ccccc1)NC(=O)[C@@H](NC(=O)CNC(=O)[C@H](CCC(=O)O)NC(=O)C(C)(C)NC(=O)[C@@H](N)Cc1c[nH]cn1)[C@@H](C)O)[C@@H](C)O)C(C)C)C(C)C)C(C)C)C(C)C)C(N)=O [Compound 65, [Aib8,Glu23,Val25,Val29,Gln30,Glu34,Lys35,Aib36,Lys37]-GLP-1-(7-37)-peptidyl-Glu-Phe-Leu amide] (H-H[Aib]EGTFTSDVSSYLEGEAVKEFVQWLVEK[Aib]KEFL-NH2; N-terminus assumed) |  |  | 410 |  | 96 | 0.037
3 | CC[C@H](C)[C@H](NC(=O)[C@H](Cc1ccccc1)NC(=O)[C@H](CCC(=O)O)NC(=O)[C@H](CCCCN)NC(=O)[C@@H](NC(=O)[C@H](C)NC(=O)[C@H](CCC(=O)O)NC(=O)CNC(=O)[C@H](CCC(=O)O)NC(=O)[C@H](CC(C)C)NC(=O)[C@H](Cc1ccc(O)cc1)NC(=O)[C@H](CO)NC(=O)[C@H](CO)NC(=O)[C@@H](NC(=O)[C@H](CC(=O)O)NC(=O)[C@H](CO)NC(=O)[C@@H](NC(=O)[C@H](Cc1ccccc1)NC(=O)[C@@H](NC(=O)CNC(=O)[C@H](CCC(=O)O)NC(=O)C(C)(C)NC(=O)[C@@H](N)Cc1c[nH]cn1)[C@@H](C)O)[C@@H](C)O)C(C)C)C(C)C)C(=O)N[C@@H](C)C(=O)N[C@@H](Cc1c[nH]c2ccccc12)C(=O)N[C@@H](CC(C)C)C(=O)N[C@H](C(=O)N[C@@H](CCC(=O)O)C(=O)N[C@@H](CCCCN)C(=O)NC(C)(C)C(=O)N[C@@H](CCCCN)C(=O)N[C@@H](CCC(=O)O)C(=O)N[C@@H](Cc1ccccc1)C(=O)N[C@@H](CC(C)C)C(=O)N[C@@H](CCC(=O)O)C(=O)N[C@@H](CCCCN)C(N)=O)C(C)C [Compound 70, [Aib8,Glu23,Val25,Glu34,Lys35,Aib36,Lys37]-GLP-1-(7-37)-peptidyl-Glu-Phe-Leu-Glu-Lys amide] |  | 0.157 |  |  | 91 | 

Now from value to compound, other results behind:

Row | EC50 (human GLP-1 receptor; [2]) [nM] | EC50 (human GLP-1 receptor; [3]) [nM] | Compound | EC50 [1] [nM] | EC50 (human GLP-1 receptor; GLP1R CRE luc 0% HSA EC50 Mean Value, BHK cells expressing human GLP-1 receptor, 0% HSA) [nM] | 4 h Cholesterol Efflux Emax [1] [%] | EC50 (human GLP-1 receptor; GLP1R CRE luc 1% HSA EC50 Mean Value) [nM]
4 | 0.005 | 0.014 | CC[C@H](C)[C@H](NC(=O)[C@H](Cc1ccccc1)NC(=O)[C@H](CCC(=O)O)NC(=O)[C@H](CCCCN)NC(=O)[C@@H](NC(=O)[C@H](C)NC(=O)[C@H](CCC(=O)O)NC(=O)CNC(=O)[C@H](CCC(=O)O)NC(=O)[C@H](CC(C)C)NC(=O)[C@H](Cc1ccc(O)cc1)NC(=O)[C@H](CO)NC(=O)[C@H](CO)NC(=O)[C@@H](NC(=O)[C@H](CC(=O)O)NC(=O)[C@H](CO)NC(=O)[C@@H](NC(=O)[C@H](Cc1ccccc1)NC(=O)[C@@H](NC(=O)CNC(=O)[C@H](CCC(=O)O)NC(=O)C(C)(C)NC(=O)[C@@H](N)Cc1c[nH]cn1)[C@@H](C)O)[C@@H](C)O)C(C)C)C(C)C)C(=O)N[C@@H](C)C(=O)N[C@@H](Cc1c[nH]c2ccccc12)C(=O)N[C@@H](CC(C)C)C(=O)N[C@H](C(=O)N[C@@H](CCC(=O)O)C(=O)N[C@@H](CCCCN)C(=O)NC(C)(C)C(=O)N[C@@H](CCCCN)C(=O)N[C@@H](CCC(=O)O)C(N)=O)C(C)C [Compound 63, [Aib8,Glu23,Val25,Glu34,Lys35,Aib36,Lys37]-GLP-1-(7-37)-peptidyl-Glu amide] (H-H[Aib]EGTFTSDVSSYLEGEAVKEFIAWLVEK[Aib]KE-NH2) |  |  | 135 | 
5 | 0.039 | 0.101 | CC[C@H](C)[C@H](NC(=O)[C@H](Cc1ccccc1)NC(=O)[C@H](CCC(=O)O)NC(=O)[C@H](CCCCN)NC(=O)[C@@H](NC(=O)[C@H](C)NC(=O)[C@H](CCC(=O)O)NC(=O)CNC(=O)[C@H](CCC(=O)O)NC(=O)[C@H](CC(C)C)NC(=O)[C@H](Cc1ccc(O)cc1)NC(=O)[C@H](CO)NC(=O)[C@H](CO)NC(=O)[C@@H](NC(=O)[C@H](CC(=O)O)NC(=O)[C@H](CO)NC(=O)[C@@H](NC(=O)[C@H](Cc1ccccc1)NC(=O)[C@@H](NC(=O)CNC(=O)[C@H](CCC(=O)O)NC(=O)C(C)(C)NC(=O)[C@@H](N)Cc1c[nH]cn1)[C@@H](C)O)[C@@H](C)O)C(C)C)C(C)C)C(=O)N[C@@H](C)C(=O)N[C@@H](Cc1c[nH]c2ccccc12)C(=O)N[C@@H](CC(C)C)C(=O)N[C@H](C(=O)N[C@@H](CCC(=O)O)C(=O)N[C@@H](CCCCN)C(=O)NC(C)(C)C(=O)N[C@@H](CCCCN)C(=O)N[C@@H](CCC(=O)O)C(=O)N[C@@H](Cc1ccccc1)C(=O)N[C@@H](CC(C)C)C(=O)N[C@@H](CCC(=O)O)C(N)=O)C(C)C [Compound 66, [Aib8,Glu23,Val25,Glu34,Lys35,Aib36,Lys37]-GLP-1-(7-37)-peptidyl-Glu-Phe-Leu-Glu amide] |  |  | 102 | 
6 | 0.062 | 0.108 | CC[C@H](C)[C@H](NC(=O)[C@H](Cc1ccccc1)NC(=O)[C@H](CCC(=O)O)NC(=O)[C@H](CCCCN)NC(=O)[C@@H](NC(=O)[C@H](C)NC(=O)[C@H](CCC(N)=O)NC(=O)CNC(=O)[C@H](CCC(=O)O)NC(=O)[C@H](CC(C)C)NC(=O)[C@H](Cc1ccc(O)cc1)NC(=O)[C@H](CO)NC(=O)[C@H](CO)NC(=O)[C@@H](NC(=O)[C@H](CC(=O)O)NC(=O)[C@H](CO)NC(=O)[C@@H](NC(=O)[C@H](Cc1ccccc1)NC(=O)[C@@H](NC(=O)CNC(=O)[C@H](CCC(=O)O)NC(=O)C(C)(C)NC(=O)[C@@H](N)Cc1c[nH]cn1)[C@@H](C)O)[C@@H](C)O)C(C)C)C(C)C)C(=O)N[C@@H](C)C(=O)N[C@@H](Cc1c[nH]c2ccccc12)C(=O)N[C@@H](CC(C)C)C(=O)N[C@H](C(=O)N[C@@H](CC(N)=O)C(=O)N[C@@H](CCCCN)C(=O)NC(C)(C)C(=O)N[C@@H](C)C(=O)N[C@@H](CCC(=O)O)C(=O)N[C@@H](Cc1ccccc1)C(=O)N[C@@H](CC(C)C)C(N)=O)C(C)C [Compound 73] (H-H[Aib]EGTFTSDVSSYLEGQAVKEFIAWLVNK[Aib]AEFL-NH2) |  |  | 86 | 
7 | 0.061 |  | CC[C@H](C)[C@H](NC(=O)[C@H](Cc1ccccc1)NC(=O)[C@H](CCC(=O)O)NC(=O)[C@H](CCCCN)NC(=O)[C@@H](NC(=O)[C@H](C)NC(=O)[C@H](CCC(=O)O)NC(=O)CNC(=O)[C@H](CCC(=O)O)NC(=O)[C@H](CC(C)C)NC(=O)[C@H](Cc1ccc(O)cc1)NC(=O)[C@H](CO)NC(=O)[C@H](CO)NC(=O)[C@@H](NC(=O)[C@H](CC(=O)O)NC(=O)[C@H](CO)NC(=O)[C@@H](NC(=O)[C@H](Cc1ccccc1)NC(=O)[C@@H](NC(=O)CNC(=O)[C@H](CCC(=O)O)NC(=O)C(C)(C)NC(=O)[C@@H](N)Cc1c[nH]cn1)[C@@H](C)O)[C@@H](C)O)C(C)C)C(C)C)C(=O)N[C@@H](CCC(N)=O)C(=O)N[C@@H](Cc1c[nH]c2ccccc12)C(=O)N[C@@H](CC(C)C)C(=O)N[C@@H](CC(C)C)C(=O)N[C@@H](CCC(=O)O)C(=O)N[C@@H](CCCCN)C(=O)NC(C)(C)C(=O)N[C@@H](CCCCN)C(=O)N[C@@H](CCC(=O)O)C(=O)N[C@@H](Cc1ccccc1)C(=O)N[C@@H](CC(C)C)C(N)=O [Compound 79, [Aib8,Glu23,Val25,Gln30,Leu33,Glu34,Lys35,Aib36,Lys37]-GLP-1-(7-37)-peptidyl-Glu-Phe-Leu amide] (H-H[Aib]EGTFTSDVSSYLEGEAVKEFIQWLLEK[Aib]KEFL-NH2) |  |  | 100 | 
